Results: patent US9707229B2, “Compositions and methods for treating an infection” (CMPD LICENSING, LLC, priority 2015, dated 2017)

Key:
Format in all cases: cell-based
[1] = test system: Escherichia coli; experiment: Expected efficacy of antibiotic agents; conditions: Gram: neg
[2] = test system: Salmonella typhi; experiment: Expected efficacy of antibiotic agents; conditions: Gram: neg
[3] = test system: Serratia marcescens; experiment: Expected efficacy of antibiotic agents; conditions: Gram: neg
[4] = test system: Mycoplasma pneumoniae; experiment: Expected efficacy of antibiotic agents; conditions: Gram: n/a
[5] = test system: Klebsiella oxytoca; experiment: Expected efficacy of antibiotic agents; conditions: Gram: neg
[6] = test system: Enterobacter sakazakii; experiment: Expected efficacy of antibiotic agents; conditions: Gram: neg
[7] = test system: Staphylococcus aureus (MSSA); experiment: Expected efficacy of antibiotic agents; conditions: Gram: pos
[8] = test system: Viridans group streptococci; experiment: Expected efficacy of antibiotic agents; conditions: Gram: pos
[9] = test system: Providencia rettgeri; experiment: Expected efficacy of antibiotic agents; conditions: Gram: neg
[10] = test system: Campylobacter jejuni; experiment: Expected efficacy of antibiotic agents; conditions: Gram: neg
[11] = test system: Legionella pneumophila; conditions: expected efficacy; Gram: neg
[12] = test system: Citrobacter freundii; experiment: Expected efficacy of antibiotic agents; conditions: Gram: neg
[13] = test system: Morganella morganii; experiment: Expected efficacy of antibiotic agents; conditions: Gram: neg
[14] = test system: Acinetobacter baumannii; experiment: Expected efficacy of antibiotic agents; conditions: Gram: neg
[15] = test system: Neisseria gonorrhoeae; experiment: Expected efficacy of antibiotic agents; conditions: Gram: neg
[16] = test system: Shigella flexneri; experiment: Expected efficacy of antibiotic agents; conditions: Gram: neg
[17] = test system: Proteus vulgaris; experiment: Expected efficacy of antibiotic agents; conditions: Gram: neg
[18] = test system: Shigella dysenteriae; experiment: Expected efficacy of antibiotic agents; conditions: Gram: neg
[19] = test system: Rickettsiae; conditions: expected efficacy; Gram: neg
[20] = test system: Chlamydia psittaci; conditions: expected efficacy; Gram: n/a
[21] = test system: Staphylococcus epidermidis; experiment: Expected efficacy of antibiotic agents; conditions: Gram: pos
[22] = test system: Enterococcus faecalis; experiment: Expected efficacy of antibiotic agents; conditions: Gram: pos
[23] = test system: Providencia stuartii; experiment: Expected efficacy of antibiotic agents; conditions: Gram: neg
[24] = test system: Francisella tularensis; conditions: expected efficacy; Gram: neg
[25] = test system: Moraxella catarrhalis; experiment: Expected efficacy of antibiotic agents; conditions: Gram: neg
[26] = test system: Acinetobacter calcoaceticus; experiment: Expected efficacy of antibiotic agents; conditions: Gram: neg
[27] = test system: Chlamydia pneumoniae; experiment: Expected efficacy of antibiotic agents; conditions: Gram: n/a
[28] = test system: Shigella sonnei; experiment: Expected efficacy of antibiotic agents; conditions: Gram: neg
[29] = test system: Diphtheroids; experiment: Expected efficacy of antibiotic agents; conditions: Gram: pos
[30] = test system: Enterobacter aerogenes; experiment: Expected efficacy of antibiotic agents; conditions: Gram: neg
[31] = test system: Vibrio cholerae; experiment: Expected efficacy of antibiotic agents; conditions: Gram: neg
[32] = test system: Peptostreptococcus; experiment: Expected efficacy of antibiotic agents; conditions: Gram: pos
[33] = test system: Streptococcus agalactiae; experiment: Expected efficacy of antibiotic agents; conditions: Gram: pos
[34] = test system: Klebsiella (Calymmatobacterium) granulomatis; experiment: Expected efficacy of antibiotic agents; conditions: Gram: neg
[35] = test system: Neisseria meningitidis; experiment: Expected efficacy of antibiotic agents; conditions: Gram: neg
[36] = test system: Enterococcus faecium; experiment: Expected efficacy of antibiotic agents; conditions: Gram: pos
[37] = test system: Acinetobacter lwoffii; experiment: Expected efficacy of antibiotic agents; conditions: Gram: neg
[38] = test system: Enterobacter cloacae; experiment: Expected efficacy of antibiotic agents; conditions: Gram: neg
[39] = test system: Chlamydia trachomatis; experiment: Expected efficacy of antibiotic agents; conditions: Gram: n/a
[40] = test system: Citrobacter diversus; experiment: Expected efficacy of antibiotic agents; conditions: Gram: neg
[41] = test system: Yersinia pestis; conditions: expected efficacy; Gram: neg
[42] = test system: Corynebacterium jeikeium; experiment: Expected efficacy of antibiotic agents; conditions: Gram: pos
[43] = test system: Clostridium perfringens; conditions: expected efficacy; Gram: anaer
[44] = test system: Bordetella pertussis; experiment: Expected efficacy of antibiotic agents; conditions: Gram: neg
[45] = test system: Klebsiella pneumoniae; experiment: Expected efficacy of antibiotic agents; conditions: Gram: neg
[46] = test system: Corynebacterium urealyticum; experiment: Expected efficacy of antibiotic agents; conditions: Gram: pos
[47] = test system: Streptococcus pyogenes; experiment: Expected efficacy of antibiotic agents; conditions: Gram: pos
[48] = test system: Shigella boydii; experiment: Expected efficacy of antibiotic agents; conditions: Gram: neg
[49] = test system: Haemophilus influenzae; experiment: Expected efficacy of antibiotic agents; conditions: Gram: neg
[50] = test system: Haemophilus parainfluenzae; experiment: Expected efficacy of antibiotic agents; conditions: Gram: neg
[51] = test system: Proteus mirabilis; experiment: Expected efficacy of antibiotic agents; conditions: Gram: neg
[52] = test system: Haemophilus ducreyi; experiment: Expected efficacy of antibiotic agents; conditions: Gram: neg
[53] = test system: Clostridium difficile; experiment: Expected efficacy of antibiotic agents; conditions: Gram: anaer
[54] = test system: Streptococcus pneumoniae; experiment: Expected efficacy of antibiotic agents; conditions: Gram: pos
[55] = test system: Bacteroides fragilis; experiment: Expected efficacy of antibiotic agents; conditions: Gram: anaer
[56] = test system: Pseudomonas aeruginosa; experiment: Expected efficacy of antibiotic agents; conditions: Gram: neg
[57] = test system: Methicillin resistant staph aureus (MRSA); experiment: Expected efficacy of antibiotic agents; conditions: Gram: pos
[58] = test system: Pseudomonas fluorescens; experiment: Expected efficacy of antibiotic agents; conditions: Gram: neg
[59] = test system: Brucella species; conditions: expected efficacy; Gram: neg

`CO/N=C(\C(=O)N[C@@H]1C(=O)N2C(C(=O)O)=C(CSc3nc(=O)c(=O)[nH]n3C)CS[C@H]12)c1csc(N)n1` [Ceftriaxone] was tested, and the “efficacy against Escherichia coli” value [1] was “yes”, the “efficacy against Salmonella typhi” value [2] was “yes” and the “efficacy against Serratia marcescens” value [3] was “yes”. The “efficacy against Mycoplasma pneumoniae” value [4] was “no”, the “efficacy against Klebsiella oxytoca” value [5] was “yes” and the “efficacy against Enterobacter sakazakii” value [6] was “yes”. The “efficacy against Staphylococcus aureus (MSSA)” value [7] was “yes”, the “efficacy against Viridans group streptococci” value [8] was “yes” and the “efficacy against Providencia rettgeri” value [9] was “yes”. The “efficacy against Campylobacter jejuni” value [10] was “no”, the “efficacy against Legionella pneumophila” value [11] was “no” and the “efficacy against Citrobacter freundii” value [12] was “yes”. The “efficacy against Morganella morganii” value [13] was “yes”, the “efficacy against Acinetobacter baumannii” value [14] was “no” and the “efficacy against Neisseria gonorrhoeae” value [15] was “yes”. The “efficacy against Shigella flexneri” value [16] was “yes”, the “efficacy against Proteus vulgaris” value [17] was “yes” and the “efficacy against Shigella dysenteriae” value [18] was “yes”. The “efficacy against Rickettsiae” value [19] was “no”, the “efficacy against Chlamydia psittaci” value [20] was “no” and the “efficacy against Staphylococcus epidermidis” value [21] was “yes”. For the same compound, the “efficacy against Enterococcus faecalis” value [22] was “no”, the “efficacy against Providencia stuartii” value [23] was “yes” and the “efficacy against Francisella tularensis” value [24] was “no”. For the same compound, the “efficacy against Moraxella catarrhalis” value [25] was “yes”, the “efficacy against Acinetobacter calcoaceticus” value [26] was “no” and the “efficacy against Chlamydia pneumoniae” value [27] was “no”. The “efficacy against Shigella sonnei” value [28] was “yes”, the “efficacy against Diphtheroids” value [29] was “no” and the “efficacy against Enterobacter aerogenes” value [30] was “yes”. The “efficacy against Vibrio cholerae” value [31] was “no”, the “efficacy against Peptostreptococcus” value [32] was “yes” and the “efficacy against Streptococcus agalactiae” value [33] was “yes”. For the same compound, the “efficacy against Klebsiella (Calymmatobacterium) granulomatis” value [34] was “yes”, the “efficacy against Neisseria meningitidis” value [35] was “yes” and the “efficacy against Enterococcus faecium” value [36] was “no”. For the same compound, the “efficacy against Acinetobacter lwoffii” value [37] was “no”, the “efficacy against Enterobacter cloacae” value [38] was “yes” and the “efficacy against Chlamydia trachomatis” value [39] was “no”. The “efficacy against Citrobacter diversus” value [40] was “yes”, the “efficacy against Yersinia pestis” value [41] was “no” and the “efficacy against Corynebacterium jeikeium” value [42] was “no”. The “efficacy against Clostridium perfringens” value [43] was “yes”, the “efficacy against Bordetella pertussis” value [44] was “no” and the “efficacy against Klebsiella pneumoniae” value [45] was “yes”. The “efficacy against Corynebacterium urealyticum” value [46] was “no”, the “efficacy against Streptococcus pyogenes” value [47] was “yes” and the “efficacy against Shigella boydii” value [48] was “yes”. The “efficacy against Haemophilus influenzae” value [49] was “yes”, the “efficacy against Haemophilus parainfluenzae” value [50] was “yes” and the “efficacy against Proteus mirabilis” value [51] was “yes”. For the same compound, the “efficacy against Haemophilus ducreyi” value [52] was “yes”, the “efficacy against Clostridium difficile” value [53] was “no” and the “efficacy against Streptococcus pneumoniae” value [54] was “yes”. The “efficacy against Bacteroides fragilis” value [55] was “yes”, the “efficacy against Pseudomonas aeruginosa” value [56] was “no” and the “efficacy against Methicillin resistant staph aureus (MRSA)” value [57] was “no”.
For Colistimethate, the “efficacy against Escherichia coli” value [1] was “yes”, the “efficacy against Serratia marcescens” value [3] was “no” and the “efficacy against Mycoplasma pneumoniae” value [4] was “no”. The “efficacy against Klebsiella oxytoca” value [5] was “yes”, the “efficacy against Enterobacter sakazakii” value [6] was “yes” and the “efficacy against Staphylococcus aureus (MSSA)” value [7] was “no”. The “efficacy against Viridans group streptococci” value [8] was “no”, the “efficacy against Providencia rettgeri” value [9] was “no” and the “efficacy against Legionella pneumophila” value [11] was “no”. The “efficacy against Neisseria gonorrhoeae” value [15] was “no”, the “efficacy against Proteus vulgaris” value [17] was “no” and the “efficacy against Chlamydia psittaci” value [20] was “no”. For the same compound, the “efficacy against Staphylococcus epidermidis” value [21] was “no”, the “efficacy against Enterococcus faecalis” value [22] was “no” and the “efficacy against Providencia stuartii” value [23] was “no”. The “efficacy against Moraxella catarrhalis” value [25] was “no”, the “efficacy against Chlamydia pneumoniae” value [27] was “no” and the “efficacy against Diphtheroids” value [29] was “no”. The “efficacy against Enterobacter aerogenes” value [30] was “yes”, the “efficacy against Vibrio cholerae” value [31] was “no” and the “efficacy against Peptostreptococcus” value [32] was “no”. For the same compound, the “efficacy against Streptococcus agalactiae” value [33] was “no”, the “efficacy against Klebsiella (Calymmatobacterium) granulomatis” value [34] was “yes” and the “efficacy against Pseudomonas fluorescens” value [58] was “yes”. For the same compound, the “efficacy against Neisseria meningitidis” value [35] was “no”, the “efficacy against Enterococcus faecium” value [36] was “no” and the “efficacy against Enterobacter cloacae” value [38] was “yes”. For the same compound, the “efficacy against Chlamydia trachomatis” value [39] was “no”, the “efficacy against Corynebacterium jeikeium” value [42] was “no” and the “efficacy against Bordetella pertussis” value [44] was “no”. The “efficacy against Klebsiella pneumoniae” value [45] was “yes”, the “efficacy against Corynebacterium urealyticum” value [46] was “no” and the “efficacy against Streptococcus pyogenes” value [47] was “no”. The “efficacy against Haemophilus parainfluenzae” value [50] was “no”, the “efficacy against Brucella species” value [59] was “no” and the “efficacy against Proteus mirabilis” value [51] was “no”. The “efficacy against Clostridium difficile” value [53] was “no”, the “efficacy against Streptococcus pneumoniae” value [54] was “no” and the “efficacy against Bacteroides fragilis” value [55] was “no”. The “efficacy against Pseudomonas aeruginosa” value [56] was “yes” and the “efficacy against Methicillin resistant staph aureus (MRSA)” value [57] was “no”.
